Assay results published in patent US20250163066A1, “PROTACs of MALT1” (TEGID THERAPEUTICS, INC., priority 2022, published 2025).
pEC50: −log10 of the molar value.

Columns and labels:
MALT1 = MALT1 (Homo sapiens (Human), UniProt Q9UDY8); experiment: MALT1 enzymatic activity inhibition (fluorescence, Ac-LRSR-AMC substrate); assay type: biochemical; conditions: recombinant MALT1 1.5 ng/μl, Ac-LRSR-AMC 1 μM
Method in brief: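 Recombinant human MALT1 (1.5 ng/μl final) preincubated 10 min at rt with compounds in 50 mM HEPES pH 7.2-7.4, 100 mM NaCl, 900 mM sodium citrate, 10 mM DTT; 1 μM Ac-LRSR-AMC then added. AMC fluorescence read at start and after 30 min 37 °C plus 30 min rt; difference gives signal, % inhibition fitted to IC50.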

[1] = test system: IL-2 MALT1-dependent release in Jurkat cells; experiment: cells; assay type: cell-based; conditions: Homo sapiens; for CC50: Jurkat, 24 h, read-out: CC50 (IL-2 MALT1-dependent release inhibition); for pEC50: Jurkat cells stimulated with antiCD3/antiCD28 for 24 h, IL-2 ELISA, read-out: EC50, IL-2 MALT1-dependent release inhibition
Method: Jurkat cells (ATCC, USA) (100,000 cells/well in a 96 well flat-bottom plate (Greiner, #655061) were cultured in RPMI 1640 supplemented with 10% FBS at 37° C., 5% CO2 in a humidified cell culture incubator for 0.5-1 h. Then 10 μl/well 15× compound (or DMSO) was added in duplicates. Cells were incubated with compound in a humidified cell culture incubator for 0.5-1 h. After the incubation, 10 μl/well of 15× human antiCD3 HIT3a antibody (BioLegend) together with 10 μl/well of 15× human antiCD28 antibody (Invitrogen) were added to stimulate Jurkat cells for 24 h. After 24 h of stimulation, supernatants were collected and IL-2 levels in supernatants were assessed using IL-2 ELISA kit (Vector-Best, Russia).

Chain of MALT1 (Q9UDY8 whole entry): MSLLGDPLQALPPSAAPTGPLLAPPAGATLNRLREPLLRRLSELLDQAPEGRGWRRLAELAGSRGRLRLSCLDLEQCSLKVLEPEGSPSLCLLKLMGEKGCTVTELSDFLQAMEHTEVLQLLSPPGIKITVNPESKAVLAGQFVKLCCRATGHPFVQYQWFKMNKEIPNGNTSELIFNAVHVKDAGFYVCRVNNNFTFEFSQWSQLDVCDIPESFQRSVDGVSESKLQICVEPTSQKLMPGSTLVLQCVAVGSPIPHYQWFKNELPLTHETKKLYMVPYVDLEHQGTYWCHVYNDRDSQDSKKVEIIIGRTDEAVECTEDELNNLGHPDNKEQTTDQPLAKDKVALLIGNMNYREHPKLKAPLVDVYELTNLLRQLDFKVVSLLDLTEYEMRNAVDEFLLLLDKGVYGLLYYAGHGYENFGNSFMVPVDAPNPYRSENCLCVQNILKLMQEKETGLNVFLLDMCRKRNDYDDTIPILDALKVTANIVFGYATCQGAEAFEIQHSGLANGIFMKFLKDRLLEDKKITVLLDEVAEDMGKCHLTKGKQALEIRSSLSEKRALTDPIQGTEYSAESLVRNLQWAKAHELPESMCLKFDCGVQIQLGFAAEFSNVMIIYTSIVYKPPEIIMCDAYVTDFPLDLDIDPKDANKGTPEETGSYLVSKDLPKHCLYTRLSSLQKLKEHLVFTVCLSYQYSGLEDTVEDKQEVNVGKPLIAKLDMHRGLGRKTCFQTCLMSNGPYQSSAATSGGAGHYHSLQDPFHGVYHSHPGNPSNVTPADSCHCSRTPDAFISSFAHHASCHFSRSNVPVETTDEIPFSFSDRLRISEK

Q: What does the source list for `Cc1cc(NC(=O)Nc2cnc3ccnn3c2C2CCCCC2)cnc1-c1noc(CCCCCC(=O)Nc2ccc3c(c2)CN(C2CCC(=O)NC2=O)C3=O)n1` (stereo not drawn) [Compound 109, 6-[3-[5-[(7-cyclohexylpyrazolo[1,5-a]pyrimidin-6-yl)carbamoylamino]-3-methyl-2-pyridyl]-1,2,4-oxadiazol-5-yl]-N-[2-(2,6-dioxo-3-piperidyl)-1-oxo-isoindolin-5-yl]hexanamide]?
A: EC50 (MALT1): 0.2 to 0.5 µM; CC50 [1]: < 500 nM

Q: With `Cc1cc(NC(=O)Nc2cnc3ccnn3c2C(C)C)cnc1-c1noc(CCCCC(=O)N2CCN(c3ccc4c(c3)CN(C3CCC(=O)NC3=O)C4=O)CC2)n1` (stereo not drawn) [Compound 86, 1-[6-[5-[5-[4-[2-(2,6-dioxo-3-piperidyl)-1-oxo-isoindolin-5-yl]piperazin-1-yl]-5-oxo-pentyl]-1,2,4-oxadiazol-3-yl]-5-methyl-3-pyridyl]-3-(7-isopropylpyrazolo[1,5-a]pyrimidin-6-yl)urea] as the molecule, how does the EC50 (MALT1) read?
A: Its EC50 is ≤ 0.2 µM.

Q: And the pEC50 [1]?
A: Its pEC50 is 5.30 to 6.00.

Q: Which results are given for `Cc1cc(NC(=O)Nc2cnc3ccnn3c2C2CCCC2)cnc1N1CCN(c2ccc3c(c2)CN(C2CCC(=O)NC2=O)C3=O)CC1` (stereo not drawn) [Compound 54, 1-(7-cyclopentylpyrazolo[1,5-a]pyrimidin-6-yl)-3-[6-[4-[2-(2,6-dioxo-3-piperidyl)-1-oxo-isoindolin-5-yl]piperazin-1-yl]-5-methyl-3-pyridyl]urea]?
A: EC50 (MALT1): 1 to 5 µM; pEC50 [1]: < 5.30

Q: How did the EC50 (MALT1) turn out when `Cc1cc(NC(=O)Nc2cnc3ccnn3c2C2CCCC2)cnc1-c1noc(CCCC(=O)N2CCN(c3ccc4c(c3)CN(C3CCC(=O)NC3=O)C4=O)CC2)n1` (stereo not drawn) [Compound 12, 1-(7-cyclopentylpyrazolo[1,5-a]pyrimidin-6-yl)-3-[6-[5-[4-[4-[2-(2,6-dioxo-3-piperidyl)-1-oxo-isoindolin-5-yl]piperazin-1-yl]-4-oxo-butyl]-1,2,4-oxadiazol-3-yl]-5-methyl-3-pyridyl]urea] was run?
A: Its EC50 is ≤ 0.2 µM.

Q: And the pEC50 [1]?
A: The pEC50 was 5.30 to 6.00.

Q: With `O=C1CCC(N2Cc3cc(N4CCN(CCCCCc5nc(-c6ncc(NC(=O)Nc7cnc8ccnn8c7C7CCCC7)cc6C(F)(F)F)no5)CC4)ccc3C2=O)C(=O)N1` (stereo not drawn) [Compound 108, 1-(7-cyclopentylpyrazolo[1,5-a]pyrimidin-6-yl)-3-[6-[5-[5-[4-[2-(2,6-dioxo-3-piperidyl)-1-oxo-isoindolin-5-yl]piperazin-1-yl]pentyl]-1,2,4-oxadiazol-3-yl]-5-(trifluoromethyl)-3-pyridyl]urea] as the molecule, how does the EC50 (MALT1) read?
A: Its EC50 is ≤ 0.2 µM.

Q: And the pEC50 [1]?
A: The pEC50 was > 6.30.

Q: What does the source list for `Cc1cc(NC(=O)Nc2cnc3ccnn3c2C2CCCC2)cnc1-c1noc(CCCCC(=O)N2CCN(c3ccc4c(c3)CN(C3CCC(=O)NC3=O)C4=O)CC2)n1` (stereo not drawn) [Compound 14, 1-(7-cyclopentylpyrazolo[1,5-a]pyrimidin-6-yl)-3-[6-[5-[5-[4-[2-(2,6-dioxo-3-piperidyl)-1-oxo-isoindolin-5-yl]piperazin-1-yl]-5-oxo-pentyl]-1,2,4-oxadiazol-3-yl]-5-methyl-3-pyridyl]urea]?
A: EC50 (MALT1): ≤ 0.2 µM; pEC50 [1]: 5.30 to 6.00

Q: How did the EC50 (MALT1) turn out when `Cc1cc(NC(=O)Nc2cnc3ccnn3c2C2CCCC2)cnc1-c1noc(CCOCCN2CCN(c3ccc4c(c3)CN(C3CCC(=O)NC3=O)C4=O)CC2)n1` (stereo not drawn) [Compound 16, 1-(7-cyclopentylpyrazolo[1,5-a]pyrimidin-6-yl)-3-[6-[5-[2-[2-[4-[2-(2,6-dioxo-3-piperidyl)-1-oxo-isoindolin-5-yl]piperazin-1-yl]ethoxy]ethyl]-1,2,4-oxadiazol-3-yl]-5-methyl-3-pyridyl]urea] was run?
A: Its EC50 is 0.2 to 0.5 µM.

Q: What about the pEC50 [1] of the same molecule?
A: The pEC50 was 5.30 to 6.00.

Q: What does the source list for `O=C1CCC(N2Cc3cc(N4CCN(CCCCCCc5nc(-c6ncc(NC(=O)Nc7cnc8ccnn8c7C7CCCC7)cc6Cl)no5)CC4)ccc3C2=O)C(=O)N1` (stereo not drawn) [Compound 78, 1-[5-chloro-6-[5-[6-[4-[2-(2,6-dioxo-3-piperidyl)-1-oxo-isoindolin-5-yl]piperazin-1-yl]hexyl]-1,2,4-oxadiazol-3-yl]-3-pyridyl]-3-(7-cyclopentylpyrazolo[1,5-a]pyrimidin-6-yl)urea]?
A: EC50 (MALT1): ≤ 0.2 µM; pEC50 [1]: > 6.30

Q: Which EC50 (MALT1) does the source give for `O=C(CCOCCN1CCN(c2ccc3c(c2)CN(C2CCC(=O)NC2=O)C3=O)CC1)NCCOc1ncc(Cl)cc1NC(=O)Nc1cnc2ccnn2c1C1CCCC1` (stereo not drawn) [Compound 37, N-[2-[[5-chloro-3-[(7-cyclopentylpyrazolo[1,5-a]pyrimidin-6-yl)carbamoylamino]-2-pyridyl]oxy]ethyl]-3-[2-[4-[2-(2,6-dioxo-3-piperidyl)-1-oxo-isoindolin-5-yl]piperazin-1-yl]ethoxy]propanamide] here?
A: The EC50 was 0.5 to 1 µM.

Q: What about the pEC50 [1] of the same molecule?
A: The pEC50 was 5.30 to 6.00.

Q: How did the EC50 (MALT1) turn out when `O=C(CCOCCOCCN1CCN(c2ccc3c(c2)CN(C2CCC(=O)NC2=O)C3=O)CC1)NCCOc1ncc(Cl)cc1NC(=O)Nc1cnc2ccnn2c1C1CCCC1` (stereo not drawn) [Compound 38, N-[2-[[5-chloro-3-[(7-cyclopentylpyrazolo[1,5-a]pyrimidin-6-yl)carbamoylamino]-2-pyridyl]oxy]ethyl]-3-[2-[2-[4-[2-(2,6-dioxo-3-piperidyl)-1-oxo-isoindolin-5-yl]piperazin-1-yl]ethoxy]ethoxy]propanamide] was run?
A: Its EC50 is 0.2 to 0.5 µM.

Q: What about the pEC50 [1] of the same molecule?
A: Its pEC50 is 5.30 to 6.00.

Q: `CC(C)c1c(NC(=O)Nc2cnc(-c3noc(CCCCCCN4CCN(c5ccc6c(c5)CN(C5CCC(=O)NC5=O)C6=O)CC4)n3)c(Cl)c2)cnc2ccnn12` (stereo not drawn) [Compound 93, 1-[5-chloro-6-[5-[6-[4-[2-(2,6-dioxo-3-piperidyl)-1-oxo-isoindolin-5-yl]piperazin-1-yl]hexyl]-1,2,4-oxadiazol-3-yl]-3-pyridyl]-3-(7-isopropylpyrazolo[1,5-a]pyrimidin-6-yl)urea] was tested. Which EC50 (MALT1) did it give?
A: Its EC50 is ≤ 0.2 µM.

Q: What about the pEC50 [1] of the same molecule?
A: Its pEC50 is > 6.30.

Q: With `CC(C)c1c(NC(=O)Nc2ccc(-c3nnc(CCCCCC(=O)N4CCN(c5ccc6c(c5)CN(C5CCC(=O)NC5=O)C6=O)CC4)o3)nc2)cnc2ccnn12` (stereo not drawn) [Compound 110, 1-[6-[5-[6-[4-[2-(2,6-dioxo-3-piperidyl)-1-oxo-isoindolin-5-yl]piperazin-1-yl]-6-oxo-hexyl]-1,3,4-oxadiazol-2-yl]-3-pyridyl]-3-(7-isopropylpyrazolo[1,5-a]pyrimidin-6-yl)urea] as the molecule, how does the EC50 (MALT1) read?
A: The EC50 was 1 to 5 µM.

Q: What about the CC50 [1] of the same molecule?
A: Its CC50 is > 5000 nM.

Q: Which results are given for `O=C1CCC(N2Cc3cc(N4CCN(C(=O)CCCc5nc(-c6ncc(NC(=O)Nc7cnc8ccnn8c7C7CCCCC7)cc6Cl)no5)CC4)ccc3C2=O)C(=O)N1` (stereo not drawn) [Compound 120, 1-[5-chloro-6-[5-[4-[4-[2-(2,6-dioxo-3-piperidyl)-1-oxo-isoindolin-5-yl]piperazin-1-yl]-4-oxo-butyl]-1,2,4-oxadiazol-3-yl]-3-pyridyl]-3-(7-cyclohexylpyrazolo[1,5-a]pyrimidin-6-yl)urea]?
A: EC50 (MALT1): ≤ 0.2 µM; CC50 [1]: < 500 nM

Q: Which results are given for `Cc1cc(NC(=O)Nc2cnc3ccnn3c2C2CCCC2)cnc1-c1noc(CCCCCN2CCN(c3ccc4c(c3)CN(C3CCC(=O)NC3=O)C4=O)CC2)n1` (stereo not drawn) [Compound 17, 1-(7-cyclopentylpyrazolo[1,5-a]pyrimidin-6-yl)-3-[6-[5-[5-[4-[2-(2,6-dioxo-3-piperidyl)-1-oxo-isoindolin-5-yl]piperazin-1-yl]pentyl]-1,2,4-oxadiazol-3-yl]-5-methyl-3-pyridyl]urea]?
A: EC50 (MALT1): ≤ 0.2 µM; pEC50 [1]: > 6.30

Q: What does the source list for `O=C1CCC(N2Cc3cc(N4CCN(C(=O)CCCCCc5nc(-c6ncc(NC(=O)Nc7cnc8ccnn8c7C7CCCCC7)cc6Cl)no5)CC4)ccc3C2=O)C(=O)N1` (stereo not drawn) [Compound 118, 1-[5-chloro-6-[5-[6-[4-[2-(2,6-dioxo-3-piperidyl)-1-oxo-isoindolin-5-yl]piperazin-1-yl]-6-oxo-hexyl]-1,2,4-oxadiazol-3-yl]-3-pyridyl]-3-(7-cyclohexylpyrazolo[1,5-a]pyrimidin-6-yl)urea]?
A: EC50 (MALT1): ≤ 0.2 µM; CC50 [1]: < 500 nM
